The values that follow come from PMC6804443 (Acta Pharmaceutica Sinica. B, 2019).

Holding throughout (type): in vitro ADME
For test [1], the target named is T1, CYP2C9 (Homo sapiens, UniProt P11712). The test is described as follows: CYP2C9 inhibition by XueBiJing compounds, cDNA-expressed enzyme [MFC→HFC]. As to conditions: 100 μmol/L.
The target in the next test is T2, UGT1A9 (Homo sapiens, UniProt O60656).
T2 sequence (O60656 26-530): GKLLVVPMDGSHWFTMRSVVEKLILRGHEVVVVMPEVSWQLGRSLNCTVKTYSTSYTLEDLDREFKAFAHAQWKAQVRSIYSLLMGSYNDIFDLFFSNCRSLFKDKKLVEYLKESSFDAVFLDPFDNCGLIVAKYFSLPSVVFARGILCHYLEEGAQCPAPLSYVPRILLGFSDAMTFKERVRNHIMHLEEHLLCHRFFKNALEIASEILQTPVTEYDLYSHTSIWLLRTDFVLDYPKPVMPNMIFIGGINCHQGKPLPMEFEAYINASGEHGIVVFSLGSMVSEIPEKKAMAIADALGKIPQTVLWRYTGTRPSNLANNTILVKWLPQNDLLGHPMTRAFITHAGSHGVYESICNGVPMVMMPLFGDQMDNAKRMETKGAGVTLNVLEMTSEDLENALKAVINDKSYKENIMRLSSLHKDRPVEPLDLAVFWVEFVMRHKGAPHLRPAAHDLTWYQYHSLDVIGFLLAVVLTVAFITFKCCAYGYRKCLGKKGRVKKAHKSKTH
The test is described as follows: UGT1A9 inhibition by XueBiJing compounds, cDNA-expressed enzyme [4-MU→4-MUG]. The following applies: 100 μmol/L.

Test [2] deals with T1, CYP2C9.

T1 sequence (P11712 whole entry): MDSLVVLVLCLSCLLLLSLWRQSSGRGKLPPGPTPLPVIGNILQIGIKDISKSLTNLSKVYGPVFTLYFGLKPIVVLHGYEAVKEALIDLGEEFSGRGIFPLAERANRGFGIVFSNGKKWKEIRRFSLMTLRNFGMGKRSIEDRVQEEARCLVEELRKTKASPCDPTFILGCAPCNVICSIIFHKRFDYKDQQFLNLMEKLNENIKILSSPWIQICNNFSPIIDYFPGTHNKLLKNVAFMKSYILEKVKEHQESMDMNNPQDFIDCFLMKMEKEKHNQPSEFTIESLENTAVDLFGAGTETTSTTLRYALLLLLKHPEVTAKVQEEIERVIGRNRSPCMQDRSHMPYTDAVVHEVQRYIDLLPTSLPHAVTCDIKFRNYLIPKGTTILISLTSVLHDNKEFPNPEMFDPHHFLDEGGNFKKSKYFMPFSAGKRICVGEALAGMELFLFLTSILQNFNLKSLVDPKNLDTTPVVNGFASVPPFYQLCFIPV

For the substance oxypaeoniflorin [X3], the “Inhibition of CYP2C9” value at CYP2C9 [1] was 55%. Moreover, at UGT1A9, the “Inhibition of UGT1A9” value was 57%. Further, on CYP2C9 [2], the “Time-dependent inhibition of CYP2C9” value was “negligible”.
